In US20090246293A1 (priority 2008, published 2009):
Read-outs that look alike come from different tables or passages of the source.

Tests used:
[1] = test system: Plasmopara viticola (PLASVI); format: in vivo; details: for effect of Formulation I on the effectiveness of fungicides, PLASVI: Table 20; for Reduction in percent disease, Formul. I / Reduction in percent disease, Formul. II: PLASVI, Table 21; for Reduction in percent disease, Formul. II: fungicide with Formulation II at 100 ppm
[2] = test system: Phytophthora infestans (PHYTIN); format: in vivo; details: for effect of Formulation I on the effectiveness of fungicides, PHYTIN: Table 20; for Reduction in percent disease, Formul. I / Reduction in percent disease, Formul. II: PHYTIN
[3] = test system: Pseudoperonospora cubensis (PSPECU); details: in vivo
[4] = test system: Pseudoperonospora cubensis; test: Drop-band treatment of cucumber leaves, then spray inoculation with zoospores (Examples 1-3); format: in vivo; details: isovaleraldehyde bisulfite adduct, sodium 100 ppm alone; 7 days
Method: The following examples were carried out on greenhouse and growth chamber experiments on cucumber plants. The cucumber plants were grown from seed in soil-free medium mix (Metro-Mix 360®) and maintained in a glasshouse with supplementary light sources to provide a 16 hour photoperiod at 24-29° C. until the plants had produced 1-2 true leaves. Plants were then trimmed to 1 true leaf, approximately 8 cm across by removing any additional leaves.
Referring below to Table 1, Dithane M45 and Dithane OS are standard commercial formulations. Isovaleraldehyde loaded onto PergoPak was prepared using the following procedure: a mixture of 1.35 g of PergoPak M (polyurea), 0.15 g of isovaleraldehyde and 8 mL of ether was stirred at room temperature for 10 min. The mixture was then concentrated by rotatory evaporation at room temperature under a slight vacuum to provide a solid that was air dried for an hour at room temperature and then bottled. All treatments were prepared by adding the appropriate amount of each treatment to distilled water to give the desired concentration of active ingredient. Dithane® M45 suspensions were initially prepared via serial dilution. Mancozeb/isovaleraldehyde solutions were prepared by adding a prepared isovaleraldehyde solution to a prepared mancozeb suspension. All solutions were vortexed and sonicated prior to treatment application to ensure that they were homogenous.
A sporangial suspension of Pseudoperonospora cubensis was made by collecting leaves with freshly sporulating lesions and washing them in distilled water, which was made up of equal volumes of chilled (4° C.) and tap distilled water (21° C.). The suspension was then left on the lab bench for 2 hours to allow the release of zoospores from the sporangia. After 2 hours the suspension was filtered through filter paper (“Whatman”, 12.5 cm, grade 113V) to remove any remaining sporangia and mycelial fragments. The zoospore concentration was determined and then adjusted to the desired concentration with distilled water.
For each example described below, an area 5 cm wide by 1 cm deep was initially marked on each cucumber leaf by placing a mark in each corner of the area. This was repeated on four separate plants to give four replicates for each treatment. Ten 15 microlitre drops were then applied to each leaf in two 5 drop bands (1 cm between each drop) and allowed to dry overnight. Subsequently a zoospore suspension of Pseudoperonospora cubensis (30,000 zoospores/mL) was sprayed with a hand-atomiser to the entire leaf until run-off. Plants were placed in a dew room (22° C. and 99% RH) for 24 hours then maintained in a growth room with supplementary light sources to provide a 14 hour photoperiod at 18° C. and 70% RH until disease assessment.
Assessment of the effectiveness of the treatment was done by visual infection within the banded area. The banded area was evaluated on a percentage scale (with 0% representing no infection and 100% representing infection of the entire area) after 5-7 days.

[5] = fungicide with Formulation I at 100 ppm
[6] = aldehyde derivative 500 ppm with mancozeb, Table 16
[7] = fungicide with Formulation I at 100 ppm, Table 19
[8] = fungicide with Formulation I at 100 ppm, Table 21
[9] = fungicide with Formulation II at 100 ppm, Table 21
[10] = fungicide with Formulation I at 100 ppm, Table 18

## COCC(=O)N(c1c(C)cccc1C)C(C)C(=O)OC (stereo not shown) [Metalaxyl]
[1]; [5]
  effect of Formulation I on the effectiveness of fungicides, PLASVI: x (0-20% reduction in percent disease)
[2]; [5]
  effect of Formulation I on the effectiveness of fungicides, PHYTIN: xx (21-35% reduction in percent disease)
[3]
  effect of Formulation I on the effectiveness of fungicides, PSPECU: x (key: x: 0-20% reduction in percent disease; xx: 21-35% reduction in percent disease; xxx: 36-50% reduction in percent disease; xxxx: >50% reduction in percent disease)

## CC(C)(C)C/C=N/NC(=O)c1cccc(C(=O)N/N=C/CC(C)(C)C)c1 [Compound S]
[1]; [6]
  Reduction in percent disease PLASVI: x (0-20% reduction in percent disease)
[2]; [6]
  Reduction in percent disease PHYTIN: xx (21-35% reduction in percent disease)
[3]
  Reduction in percent disease PSPECU: x (key: x: 0-20% reduction in percent disease; xx: 21-35% reduction in percent disease; xxx: 36-50% reduction in percent disease; xxxx: >50% reduction in percent disease)

## CNC(=O)/C(=N/OC)c1ccccc1COc1cc(C)ccc1C [Dimoxystrobin]
[1]; [7]
  Reduction in percent disease PLASVI: x (0-20% reduction in percent disease)
[2]; [7]
  Reduction in percent disease PHYTIN: x (0-20% reduction in percent disease)
[3]
  Reduction in percent disease PSPECU: x (key: x: 0-20% reduction in percent disease; xx: 21-35% reduction in percent disease; xxx: 36-50% reduction in percent disease; xxxx: >50% reduction in percent disease)

## Cc1c(Br)c2ccc(F)cc2n1S(=O)(=O)c1ncn(S(=O)(=O)N(C)C)n1 [Amisulbrom]
[1]; [5]
  Reduction in percent disease, Formul. I: xxx (36-50% reduction in percent disease)
  effect of Formulation I on the effectiveness of fungicides, PLASVI: x (0-20% reduction in percent disease)
[1]
  Reduction in percent disease, Formul. II: xx (21-35% reduction in percent disease)
[2]; [8]
  Reduction in percent disease, Formul. I: x (0-20% reduction in percent disease)
[2]; [9]
  Reduction in percent disease, Formul. II: x (0-20% reduction in percent disease)
[2]; [5]
  effect of Formulation I on the effectiveness of fungicides, PHYTIN: x (0-20% reduction in percent disease)
[3]
  Reduction in percent disease, Formul. I: x (key: x: 0-20% reduction in percent disease; xx: 21-35% reduction in percent disease; xxx: 36-50% reduction in percent disease; xxxx: >50% reduction in percent disease)
  Reduction in percent disease, Formul. II: x (key: x: 0-20% reduction in percent disease; xx: 21-35% reduction in percent disease; xxx: 36-50% reduction in percent disease; xxxx: >50% reduction in percent disease)

## C[C@@]1(c2ccc(Oc3ccccc3)cc2)OC(=O)N(Nc2ccccc2)C1=O (racemic) [Famoxadone]
[1]; [7]
  Reduction in percent disease PLASVI: x (0-20% reduction in percent disease)
[2]; [7]
  Reduction in percent disease PHYTIN: xx (21-35% reduction in percent disease)
[3]
  Reduction in percent disease PSPECU: x (key: x: 0-20% reduction in percent disease; xx: 21-35% reduction in percent disease; xxx: 36-50% reduction in percent disease; xxxx: >50% reduction in percent disease)

## CCC(C)/C=N/NC(=O)c1cccc(C(=O)N/N=C/C(C)CC)c1 (stereo not shown) [Compound P]
[1]; [6]
  Reduction in percent disease PLASVI: x (0-20% reduction in percent disease)
[2]; [6]
  Reduction in percent disease PHYTIN: x (0-20% reduction in percent disease)
[3]
  Reduction in percent disease PSPECU: x (key: x: 0-20% reduction in percent disease; xx: 21-35% reduction in percent disease; xxx: 36-50% reduction in percent disease; xxxx: >50% reduction in percent disease)

## COc1ccc(C(=CC(=O)N2CCOCC2)c2ccc(Cl)cc2)cc1OC [Dimethomorph]
[1]; [7]
  Reduction in percent disease PLASVI: xx (21-35% reduction in percent disease)
[2]; [7]
  Reduction in percent disease PHYTIN: x (0-20% reduction in percent disease)
[3]
  Reduction in percent disease PSPECU: x (key: x: 0-20% reduction in percent disease; xx: 21-35% reduction in percent disease; xxx: 36-50% reduction in percent disease; xxxx: >50% reduction in percent disease)

## CCCCCCCCCc1c(COC)nc2ncnn2c1N [Compound T]
[1]; [5]
  Reduction in percent disease, Formul. I: x (0-20% reduction in percent disease)
[1]
  Reduction in percent disease, Formul. II: x (0-20% reduction in percent disease)
[2]; [8]
  Reduction in percent disease, Formul. I: x (0-20% reduction in percent disease)
[2]; [9]
  Reduction in percent disease, Formul. II: x (0-20% reduction in percent disease)
[3]
  Reduction in percent disease, Formul. I: x (key: x: 0-20% reduction in percent disease; xx: 21-35% reduction in percent disease; xxx: 36-50% reduction in percent disease; xxxx: >50% reduction in percent disease)
  Reduction in percent disease, Formul. II: x (key: x: 0-20% reduction in percent disease; xx: 21-35% reduction in percent disease; xxx: 36-50% reduction in percent disease; xxxx: >50% reduction in percent disease)

## CC(C)CC(O)S(=O)(=O)[O-].[Na+] (stereo not shown) [Isovaleraldehyde bisulfite adduct, sodium]
[4]
  Percent infection of Pseudoperonospora cubensis on cucumbers: 45%

## [Cl-].[Cu+2].[Cu+2].[OH-].[OH-].[OH-] [Copper oxychloride]
[1]; [5]
  effect of Formulation I on the effectiveness of fungicides, PLASVI: x (0-20% reduction in percent disease)
[2]; [5]
  effect of Formulation I on the effectiveness of fungicides, PHYTIN: x (0-20% reduction in percent disease)
[3]
  effect of Formulation I on the effectiveness of fungicides, PSPECU: x (key: x: 0-20% reduction in percent disease; xx: 21-35% reduction in percent disease; xxx: 36-50% reduction in percent disease; xxxx: >50% reduction in percent disease)

## CCNC(=O)NC(=O)/C(C#N)=N/OC [Cymoxanil]
[1]; [10]
  Reduction in percent disease PLASVI: x (0-20% reduction in percent disease)
[2]; [10]
  Reduction in percent disease PHYTIN: xx (21-35% reduction in percent disease)
[3]
  Reduction in percent disease PSPECU: x (key: x: 0-20% reduction in percent disease; xx: 21-35% reduction in percent disease; xxx: 36-50% reduction in percent disease; xxxx: >50% reduction in percent disease)

## CO/C=C(/C(=O)OC)c1ccccc1COc1cccc(C(F)(F)F)n1 [Picoxystrobin]
[1]; [10]
  Reduction in percent disease PLASVI: xxx (36-50% reduction in percent disease)
[2]; fungicide with Formulation II at 100 ppm of attractant derivative, Table 22
  Reduction in percent disease, Formul. II: x (0-20% reduction in percent disease)
[2]; [10]
  Reduction in percent disease PHYTIN: x (0-20% reduction in percent disease)
[3]
  Reduction in percent disease, Formul. II: x (key: x: 0-20% reduction in percent disease; xx: 21-35% reduction in percent disease; xxx: 36-50% reduction in percent disease; xxxx: >50% reduction in percent disease)
